We go through 3 molecules from US20110262508A1, “ANTIMICROBIAL COMPOSITIONS, FORMULATIONS AND USES THEREOF” (priority 2007, published 2011).

One data set has as its system human RBC. The data set can be described thus: Hemolysis of RBC. The format is cell-based. How it is done: Varying amounts of peptide were incubated with the washed RBC for one hour at room temperature. Intact cells were pelleted by gentle centrifugation, and hemolysis of each sample was determined by absorption measurement at 450 nm. A positive control sample consisted of RBC lysed by the addition of 0.1% Triton, for which hemolysis was also determined by absorption measurement at 450 nm. Percentages of lysed RBC incubated with peptide were then calculated by the ratio of absorbances at 450 nm for the sample relative to the absorbance at 450 nm of the positive control sample. The MHC10 value was calculated as the minimum peptide concentration to induce 10% cell lysis.

The nature of data set [1]: Cytotoxicity against Jurkat cells (CellTiter Blue). The data set is classed as cell-based, human. The conditions noted are these: human. The method, then:
(§1) The cytotoxicities of selected peptides against human T-lymphocytes, in particular Jurkat cells, was determined by growing 100 uL Jurkat cells in RPMI (approx. 5×10^5 cells/ml density) overnight at 37° C. under 5% CO2 atmosphere, in microtiter plate wells, in the presence and absence of peptides. Control reactions either lacked peptide (negative cytotoxicity control), or contained a buffer to completely lyse Jurkat cells (positive cytotoxicity control). The viabilities of cells were then determined by addition of 20 uL CellTiter Blue dye (Promega) to each well, and incubation of cells for a further 3 hrs at 37° C. Fluorescence values were measured for 1 sec at 540 nm/615 nm, and expressed relative to fluorescence values for negative and positive cytotoxicity control samples. Comparison with a fully lysed control allowed the calculation of a percentage killing for each peptide concentration. The MCC10 value was calculated as the minimum peptide concentration required to induce 10% cytotoxicity.
Background: Resazurin is reduced to fluorescent resorufin, in cell work by metabolically active cells.

Another data set concerns A. baumannii cultures. The data set can be described thus: Time taken to exert cytotoxic effect (killing time). The data set is classed as cell-based. The method, then:
To determine the time killing times for bactericidal peptides, A. baumannii cultures were exposed to different concentrations of peptides for predetermined time periods, and the numbers of bacteria surviving at the end of each time period were determined. Peptides were classified as “Fast”, “Intermediate” or “Slow” according to whether they exerted their cytotoxic effect in less than 30 mins, or between 30-60 mins, or between […] and 240 mins.

The subject of data set [2] is A. baumannii ATCC 19606, Acinetobacter spp. ATCC 17903, Acinetobacter spp. ATCC 19004, E. coli BL21, S. aureus, S. typhimurium AroA, P. aeruginosa, P. …. Description: Antibacterial spectrum over the serial dilution panel (Table 6). The data set is classed as cell-based. The conditions noted are these: summary of Table 6. In short, it runs like this: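 Growth inhibition in liquid culture: freshly inoculated strains exposed to roughly 5–10 μM peptide, 5-6 h shaking at 37° C. Absorbance at 595 nm measured growth, with 0.1% acetonitrile vehicle as control.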

The subject of data set [3] is A. baumannii. The data set is classed as cell-based. In short, it runs like this: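 Laboratory strains and 50 clinical isolates of A. baumannii were tested by CLSI broth microdilution, with serially diluted peptide (0.1-64 μg) and about 1×10^5 C.F.U. per well, incubated aerobically overnight at 35±2° C. MIC was read visually. MBC came from subculturing clear wells, as ≥99.9% inoculum reduction.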

Data set [4] relates to A. baumannii ATCC Accession No. 19606. The format is cell-based. The conditions noted are these: A. baumannii ATCC 19606.
Data set [5] has as its system S. typhimurium strain AroA. The data set is classed as cell-based.
Data set [6] relates to Escherichia coli strain BL21. The data set is classed as cell-based. The conditions noted are these: E. coli BL21.
The test system of data set [7] is Acinetobacter spp. ATCC 19004. The format is cell-based.
The test system of another data set is P. aeruginosa. The data set is classed as cell-based.
The next data set relates to S. aureus. The format is cell-based.
Data set [8] deals with Acinetobacter spp. ATCC 17903. The data set is classed as cell-based.
The test system of another data set is Jurkat cells. The data set can be described thus: Cytotoxicity against Jurkat cells (CellTiter Blue). The format is cell-based, human. The method, then:
as §1

Data set [9] has as its system A. baumannii. Description: A. baumannii lung infection in mice, cell counts in lungs. The format is in vivo, C57B1/6 mice. The method, then:
Groups of C57B1/6 mice that have been ear-tagged for identification are used. Freshly-prepared inocula of A. baumannii are prepared from cultures of A. baumannii passaged four times through mice, and cultures are grown with agitation at 37° C. in Nutrient broth to an OD600 value of approximately 0.3 units. Cells are collected by centrifugation at room temperature for 20 mins (5,500 rpm using a GA-10 rotor) and resuspended in 10 ml sterile PBS at room temperature. This wash is repeated once. The cell pellet is then resuspended in 0.5 ml PBS to an approximate concentration of 2.5×10^9 c.f.u./ml. Animals are inoculated intranasally 40 μl inoculum (approximately 1×10^8 c.f.u.) using a sterile 200 μl capacity pipette tip having approximately 3 mm removed from the end. The precise time of inoculation is recorded for each animal. Peptides are administered intravenously e.g., after 3 hr, in 200 μl aliquots of a 200 μM peptide solution in PBS.
At 5.5 hr post-inoculation (taking into account staggered inoculation times), both lung lobes are removed from the animals, homogenised in 0.9 ml PBS and plated on MHB plates at 1×10^−3 dilution, 1×10^−4 dilution and 1×10^−5 dilution in PBS. Following incubation periods sufficient to grow colonies, cells are counted.

Molecules are shown by their SMILES. Like-named read-outs stand apart in the source and are kept apart here. Square brackets hold non-standard residues; d marks the D form. Peptide text beside a SMILES is read from it. * marks the point of attachment. Biotin = O=C1N[C@H]2[C@H](CS[C@H]2CCCCC(=O)*)N1

The molecule `CC[C@H](C)[C@H](NC(=O)[C@H](Cc1c[nH]c2ccccc12)NC(=O)[C@H](CC(=O)O)NC(=O)[C@H](CO)NC(=O)[C@H](CS)NC(=O)[C@H](CC(C)C)NC(=O)[C@H](CC(C)C)NC(=O)[C@H](C)NC(=O)[C@H](CS)NC(=O)[C@H](CCCNC(=N)N)NC(=O)[C@H](CC(C)C)NC(=O)[C@H](CCCNC(=N)N)NC(=O)[C@H](C)NC(=O)CNC(=O)[C@H](CCCNC(=N)N)NC(=O)[C@@H](NC(=O)CCCC[C@@H]1SC[C@@H]2NC(=O)N[C@@H]21)C(C)C)C(=O)N[C@H](C(=O)N[C@@H](CO)C(=O)N[C@@H](CS)C(=O)N[C@@H](CCCNC(=N)N)C(=O)N[C@@H](CC(C)C)C(=O)N[C@@H](CC(C)C)C(=O)NCC(=O)O)C(C)C` [Ac38] (Biotin-VRGARLRCALLCSDWIVSCRLLG-OH; N-terminus and C-terminus assumed) came in with an MHC10 with human RBC greater than 100 µM. Besides, the “Percent hemolysis at 5 μM peptide” value with human RBC (red cells of human, 5) stood at 0.8%. Also, the “Percent hemolysis at 10 μM peptide” value in the data set with human RBC (red cells of human, 10) stood at 3.8%. Further, the “Percent hemolysis at 20 μM peptide” value with human RBC (red cells of human, 20) was found to be 4.8%. For the same molecule, the “Percent hemolysis at 40 μM peptide” value with human RBC (red cells of human, 40) was 11.9%. Also, in the data set on human RBC (red cells of human, 60), the “Percent hemolysis at 60 μM peptide” value was found to be 19.5%. Further, the “Percent hemolysis at 80 μM peptide” value with human RBC (red cells of human, 80) is listed as 26.9%. Further, the “Percent hemolysis at 100 μM peptide” value in the data set with human RBC (red cells of human, 1 h, 100) was determined as 27.9%. Also, in data set [1], the cytotoxicity at 12.5 μM was found to be 0%, the cytotoxicity at 25 μM amounted to 0% and the cytotoxicity at 50 μM came to 0%. Further, the killing time classification entry in the data set on A. baumannii cultures was “RAPID”. The “selectively inhibited growth of A. baumannii ATCC Accession No. 19606, Acinetobacter spp. ATCC 17903, Acinetobacter spp. ATCC 19004, and S. aureus” value in data set [2] is “selectively inhibited growth”. Also, in the data set with A. baumannii [3], the “MIC (μM) for amidated peptide” value was in the range of 15 to 20 µM, the “MIC (μM) for non-amidated Peptide” value is 40 µM and the “bactericidal or bacteriostatic against A. baumannii” value was “bactericidal”.

`CC(C)C[C@H](NC(=O)CNC(=O)[C@@H]1CCCN1C(=O)[C@H](Cc1c[nH]c2ccccc12)NC(=O)[C@H](CCCCN)NC(=O)[C@H](CCCCN)NC(=O)[C@H](CCCNC(=N)N)NC(=O)[C@H](C)NC(=O)[C@H](CCC(N)=O)NC(=O)[C@@H]1CCCN1C(=O)[C@H](CO)NC(=O)[C@@H](NC(=O)[C@H](CCCCN)NC(=O)[C@H](CC(C)C)NC(=O)[C@H](CCCCN)NC(=O)[C@@H](NC(=O)[C@H](CC(C)C)NC(=O)[C@H](Cc1c[nH]cn1)NC(=O)[C@H](CC(=O)O)NC(=O)CN)C(C)C)[C@@H](C)O)C(=O)NCC(=O)N[C@@H](CC(N)=O)C(=O)N[C@@H](CCC(=O)O)C(=O)O` [Ac99] (H-GDHLVKLKTSPQARKKWPGLGNE-OH; N-terminus and C-terminus assumed): the “% inhibition of bacterial growth by peptide” value (from here on “% inhibition”) stood at 9% in [4] (12.5 μM peptide); 20% in [4] (15 μM peptide); 14% in data set [4] (17.5 μM peptide); 27% in data set [4] (20 μM peptide); 0% in [5] (12.5 μM peptide); 5% in [5] (15 μM peptide). Moreover, the “% inhibition” value turned out to be 0% in [5] (17.5 μM peptide); 4% in data set [5] (20 μM peptide); 16% in [6] (12.5 μM peptide); 23% in [6] (15 μM peptide); 17% in data set [6] (17.5 μM peptide); 27% in [6] (20 μM peptide). The “% inhibition” value in data set [7] (12.5 μM peptide) amounted to 0%; in [7] (15 μM peptide) it was 1%; in data set [7] (17.5 μM peptide), 7%; in [7] (20 μM peptide), 92%; with P. aeruginosa (12.5 μM peptide), 8%; with P. aeruginosa (15 μM peptide), 21%. For the same molecule, the “% inhibition” value came to 0% with P. aeruginosa (17.5 μM peptide); 0% in the data set on P. aeruginosa (20 μM peptide); 60% with S. aureus (12.5 μM peptide); 80% with S. aureus (15 μM peptide); 99% in the data set with S. aureus (17.5 μM peptide); 100% with S. aureus (20 μM peptide). The “% inhibition” value in data set [8] (12.5 μM peptide) came to 0%; in [8] (15 μM peptide), 1%; in data set [8] (17.5 μM peptide), 1%; in [8] (20 μM peptide) it was 32%. For the same molecule, in data set [2], the “selectively inhibited growth of Acinetobacter spp. ATCC 19004, and S. aureus” value is “selectively inhibited growth”.

In the data set on human RBC, `CC[C@@H](C)[C@@H](NC(=O)[C@@H](CCCNC(=N)N)NC(=O)[C@@H](C)NC(=O)[C@@H](CC(C)C)NC(=O)[C@@H](CCCNC(=N)N)NC(=O)[C@@H](CCCNC(=N)N)NC(=O)CCCC[C@@H]1SC[C@@H]2NC(=O)N[C@@H]21)C(=O)N[C@H](CCCCN)C(=O)N[C@H](CO)C(=O)N[C@H](CC(C)C)C(=O)N[C@H](CC(C)C)C(=O)N[C@H](CCC(N)=O)C(=O)N[C@H](CCCNC(=N)N)C(=O)N[C@H](CS)C(=O)N[C@@H](C(=O)N[C@H](C)C(=O)N[C@H](Cc1ccccc1)C(=O)N[C@H](Cc1ccccc1)C(=O)N[C@H](CO)C(=O)N[C@H](Cc1c[nH]cn1)C(=O)N[C@H](CC(N)=O)C(=O)N[C@H](Cc1ccc(O)cc1)C(=O)N[C@H](CCCNC(=N)N)C(=O)N[C@@H](C(=O)O)C(C)C)C(C)C` [Ac13r] (Biotin-[dR][dR][dL][dA][dR][dI][dK][dS][dL][dL][dQ][dR][dC][dV][dA][dF][dF][dS][dH][dN][dY][dR][dV]-OH; N-terminus and C-terminus assumed) registered an MHC10 of roughly 15 µM. In addition, in the data set with Jurkat cells, the MCC10 was found to be 30 µM. In [1], the cytotoxicity at 12.5 μM is 0%, the cytotoxicity at 25 μM came out at 3% and the cytotoxicity at 50 μM came to 39%. Besides, the “trend to reduce A. baumannii infection in the lung” value in the data set with A. baumannii [9] is reported as “strong trend”. For the same molecule, the “Cell counts in lungs post-treatment, Mouse 2” value in the data set on A. baumannii [9] (as E41, Mouse 2) is reported as 2.6 × 10^5. Moreover, the “Cell counts in lungs post-treatment, Mouse 3” value in the data set on A. baumannii [9] (as E41, Mouse 3) is on record as 9.0 × 10^4. The “Cell counts in lungs post-treatment, Mouse 1” value with A. baumannii [9] (peptide i.v. after intranasal A. baumannii, lungs at 5.5 hr post-inoculation, Mouse 1) was 1 × 10^4. Further, in the data set on A. baumannii [3], the “MIC (μM) for amidated peptide” value is 1.25 to 2.5 µM and the “MIC (μM) for non-amidated Peptide” value was in the range of 1.25 to 2.5 µM.
